Assay results as given in ChEMBL document CHEMBL1139973, “Synthesis and structure-activity relationships of taxuyunnanine C derivatives as multidrug resistance modulator in MDR cancer cells” (Bioorg Med Chem Lett, 2007).

Tests used:
[1] = Growth inhibition of human WI38 cells; type: cell-based; conditions: WI-38
[2] = biological target: T1, ATP-dependent translocase ABCB1 (Homo sapiens, UniProt P08183); experiment: Inhibition of Pgp in multidrug-resistant human 2780AD cells assessed as calcein accumulation at 2.5 ug/mL relative to control; type: cell-based; parameters: scale not given: the % may be the effect or the level left; conditions: a2780 adr
T1 sequence (P08183 whole entry): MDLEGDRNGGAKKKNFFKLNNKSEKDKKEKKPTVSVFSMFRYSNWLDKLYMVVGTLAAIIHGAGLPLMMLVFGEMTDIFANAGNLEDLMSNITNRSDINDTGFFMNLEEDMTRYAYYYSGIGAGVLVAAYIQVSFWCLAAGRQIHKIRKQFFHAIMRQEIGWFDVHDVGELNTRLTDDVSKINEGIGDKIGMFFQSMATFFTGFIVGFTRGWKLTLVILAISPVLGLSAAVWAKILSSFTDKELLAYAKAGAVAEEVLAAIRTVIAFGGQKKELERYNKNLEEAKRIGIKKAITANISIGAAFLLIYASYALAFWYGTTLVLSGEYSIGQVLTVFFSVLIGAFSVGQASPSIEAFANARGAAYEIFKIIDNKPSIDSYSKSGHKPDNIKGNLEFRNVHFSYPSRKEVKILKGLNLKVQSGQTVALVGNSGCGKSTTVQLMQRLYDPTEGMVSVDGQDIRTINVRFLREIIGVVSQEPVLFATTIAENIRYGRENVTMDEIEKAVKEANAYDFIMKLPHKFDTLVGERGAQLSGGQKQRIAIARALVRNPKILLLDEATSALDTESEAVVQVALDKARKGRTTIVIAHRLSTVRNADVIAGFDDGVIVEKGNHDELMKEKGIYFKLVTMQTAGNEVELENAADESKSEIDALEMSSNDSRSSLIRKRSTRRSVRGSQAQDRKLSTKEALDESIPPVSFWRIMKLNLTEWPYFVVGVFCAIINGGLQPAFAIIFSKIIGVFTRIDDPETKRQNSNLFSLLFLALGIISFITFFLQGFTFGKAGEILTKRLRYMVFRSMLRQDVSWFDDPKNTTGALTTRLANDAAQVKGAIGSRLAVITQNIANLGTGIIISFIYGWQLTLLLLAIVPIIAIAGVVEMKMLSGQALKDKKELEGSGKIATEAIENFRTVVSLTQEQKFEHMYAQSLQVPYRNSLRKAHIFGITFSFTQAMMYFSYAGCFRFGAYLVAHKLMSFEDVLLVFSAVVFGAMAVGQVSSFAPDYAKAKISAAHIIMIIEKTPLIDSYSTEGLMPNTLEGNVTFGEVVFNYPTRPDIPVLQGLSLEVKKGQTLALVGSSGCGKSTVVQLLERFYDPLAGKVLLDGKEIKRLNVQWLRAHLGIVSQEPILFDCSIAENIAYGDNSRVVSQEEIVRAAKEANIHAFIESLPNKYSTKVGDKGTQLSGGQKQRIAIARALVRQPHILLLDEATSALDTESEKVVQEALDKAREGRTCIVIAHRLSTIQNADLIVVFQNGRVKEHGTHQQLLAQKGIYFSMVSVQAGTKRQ

[3] = biological target: T1, ATP-dependent translocase ABCB1; experiment: Inhibition of Pgp in multidrug-resistant human 2780AD cells assessed as calcein accumulation at 0.25 ug/mL relative to control; type: cell-based; parameters: scale not given: the % may be the effect or the level left; conditions: a2780 adr
WI-38 VA13 = experiment: Growth inhibition of human VA13 cells; type: functional, cell-based
[4] = biological target: T1, ATP-dependent translocase ABCB1; experiment: Inhibition of Pgp in multidrug-resistant human 2780AD cells assessed as calcein accumulation at 25 ug/mL relative to control; type: cell-based; parameters: scale not given: the % may be the effect or the level left; conditions: a2780 adr
HepG2 = experiment: Growth inhibition of human HepG2 cells; type: functional, cell-based
[5] = biological target: T1, ATP-dependent translocase ABCB1; experiment: Inhibition of Pgp in multidrug-resistant human 2780AD cells assessed as vincristine accumulation at 10 ug/mL relative to verapamil; type: cell-based; parameters: scale not given: the % may be the effect or the level left; conditions: a2780 adr
[6] = biological target: T1, ATP-dependent translocase ABCB1; experiment: Inhibition of Pgp in multidrug-resistant human 2780AD cells assessed as vincristine accumulation at 0.1 ug/mL relative to verapamil; type: cell-based; parameters: scale not given: the % may be the effect or the level left; conditions: a2780 adr
[7] = biological target: T1, ATP-dependent translocase ABCB1; experiment: Inhibition of Pgp in multidrug-resistant human 2780AD cells assessed as vincristine accumulation at 1.0 ug/mL relative to verapamil; type: cell-based; parameters: scale not given: the % may be the effect or the level left; conditions: a2780 adr
[8] = biological target: T1, ATP-dependent translocase ABCB1; experiment: Inhibition of Pgp in multidrug-resistant human 2780AD cells assessed as vincristine accumulation at 1.0 ug/mL relative to control; type: cell-based; parameters: scale not given: the % may be the effect or the level left; conditions: a2780 adr
[9] = biological target: T1, ATP-dependent translocase ABCB1; experiment: Inhibition of Pgp in multidrug-resistant human 2780AD cells assessed as vincristine accumulation at 10 ug/mL relative to control; type: cell-based; parameters: scale not given: the % may be the effect or the level left; conditions: a2780 adr
[10] = biological target: T1, ATP-dependent translocase ABCB1; experiment: Inhibition of Pgp in multidrug-resistant human 2780AD cells assessed as vincristine accumulation at 0.1 ug/mL relative to control; type: cell-based; parameters: scale not given: the % may be the effect or the level left; conditions: a2780 adr

| Structure (SMILES) | IC50 [1] [µM] | Activity [2] [%] | Activity [3] [%] | IC50 (WI-38 VA13) [µM] | Activity [4] [%] | IC50 (HepG2) [µM] | Activity [5] [%] | Activity [6] [%] | Activity [7] [%] | Activity [8] [%] | Activity [9] [%] | Activity [10] [%] |
| --- | --- | --- | --- | --- | --- | --- | --- | --- | --- | --- | --- | --- |
| C=C1[C@@H](OC(C)=O)C[C@H](O)[C@@]2(C)C[C@H](OC(C)=O)C3=C(C)C[C@H](OC(=O)C(C)C(C)O)[C@@H]([C@@H](OC(C)=O)[C@H]12)C3(C)C (stereo partly specified) | 140 | 104 | 87 | > 173 | 107 | 153 | – | – | – | – | – | – |
| C=C1[C@@H](OC(C)=O)CC[C@@]2(C)[C@@H](O)[C@H](OC(C)=O)C3=C(C)C[C@H](OC(C)=O)[C@@H]([C@@H](OC(C)=O)[C@H]12)C3(C)C | 129 | 101 | 102 | > 192 | 110 | 128 | 37 | 79 | 58 | 108 | 168 | 86 |
| C=C1[C@@H](O)CC[C@@]2(C)C[C@H](OC(C)=O)C3=C(C)C[C@H](OC(C)=O)[C@@H]([C@@H](OC(C)=O)[C@H]12)C3(C)C | 149 | 118 | 118 | 105 | 141 | 183 | – | – | – | – | – | – |
| C=C1[C@@H](OC(C)=O)CC[C@@]2(C)C[C@H](OC(C)=O)C3=C(C)C[C@H](OC(=O)c4ccccc4)[C@@H]([C@@H](OC(C)=O)[C@H]12)C3(C)C | > 176 | 107 | 90 | > 176 | 133 | 144 | – | – | – | – | – | – |
| C=C1[C@@H](OC(C)=O)C[C@H](OC(=O)/C=C/c2ccccc2)[C@@]2(C)C[C@H](OC(C)=O)C3=C(C)C[C@H](OC(=O)C(C)CC)[C@@H]([C@@H](OC(C)=O)[C@H]12)C3(C)C (stereo partly specified) | > 144 | 98 | 96 | > 144 | 102 | > 144 | – | – | – | – | – | – |
| C=C1[C@@H](OC(C)=O)C[C@H](OC(=O)/C=C/c2ccccc2)[C@@]2(C)C[C@H](OC(C)=O)C3=C(C)C[C@H](OC(=O)C(C)C(C)O)[C@@H]([C@@H](OC(C)=O)[C@H]12)C3(C)C (stereo partly specified) | 62.4 | 102 | 97 | 49.9 | 130 | 80.4 | – | – | – | – | – | – |
| C=C1[C@@H](OC(C)=O)CC[C@@]2(C)C[C@H](O)C3=C(C)C[C@H](OC(C)=O)[C@@H]([C@@H](OC(C)=O)[C@H]12)C3(C)C | 105 | 98 | 103 | 12.6 | 111 | 108 | 51 | 84 | 64 | 119 | 229 | 92 |
| C=C1[C@@H](OC(C)=O)C[C@H](O)[C@@]2(C)C[C@H](OC(C)=O)C3=C(C)C[C@H](OC(=O)C(C)CC)[C@@H]([C@@H](OC(C)=O)[C@H]12)C3(C)C (stereo partly specified) | 81.6 | 98 | 94 | 79.1 | 110 | 75.2 | – | – | – | – | – | – |
| C=C1[C@@H](OC(C)=O)CC[C@@]2(C)C[C@H](OC(C)=O)C3=C(C)C[C@H](OC(=O)C(C)CC)[C@@H]([C@@H](OC(C)=O)[C@H]12)C3(C)C (stereo partly specified) | > 183 | 86 | 100 | 61.1 | 119 | 41.7 | – | – | – | – | – | – |
| C=C1[C@@H](OC(C)=O)CC[C@@]2(C)C[C@H](OC(C)=O)C3=C(C)C[C@H](OC(C)=O)[C@@H]([C@@H](O)[C@H]12)C3(C)C | 130 | 99 | 99 | 104 | 111 | 122 | 74 | 89 | 84 | 144 | 259 | 101 |
| C=C1[C@@H](OC(C)=O)CC[C@@]2(C)C[C@H](OC(=O)/C=C/c3ccccc3)C3=C(C)C[C@H](O)[C@@H]([C@@H](OC(C)=O)[C@H]12)C3(C)C | 71.7 | 113 | 109 | 11.5 | 113 | 15.3 | 110 | 105 | 102 | 190 | 497 | 114 |
| C=C1[C@@H](OC(C)=O)CC[C@@]2(C)C[C@H](OC(C)=O)C3=C(C)C[C@H](OC(=O)C(C)C(C)O)[C@@H]([C@@H](OC(C)=O)[C@H]12)C3(C)C (stereo partly specified) [YUNNANXANE] | 79.4 | 94 | 81 | 9.29 | 168 | 18.5 | – | – | – | – | – | – |
| C=C1[C@@H](OC(C)=O)CC[C@@]2(C)C[C@H](OC(C)=O)C3=C(C)C[C@H](OC(C)=O)[C@@H]([C@@H](OC(C)=O)[C@H]12)C3(C)C [TAXUYUNNANINE C] | 130 | 141 | 130 | 53.1 | 127 | 18.5 | – | – | – | – | – | – |
| C=C1[C@@H](OC(=O)/C=C/c2ccccc2)CC[C@@]2(C)C[C@H](OC(C)=O)C3=C(C)C[C@H](OC(C)=O)[C@@H]([C@@H](OC(C)=O)[C@H]12)C3(C)C | 99 | 95 | 102 | 125 | 121 | 9.95 | – | – | – | – | – | – |
| C=C1[C@@H](OC(C)=O)CC[C@@]2(C)C[C@H](OC(C)=O)C3=C(C)CC[C@@H]([C@@H](OC(C)=O)[C@H]12)C3(C)C | 8.93 | 105 | 89 | 12.2 | 91 | 10.3 | – | – | – | – | – | – |
| C=C1[C@@H](OC(C)=O)CC[C@@]2(C)C[C@H](OC(C)=O)C3=C(C)C[C@H](OC(=O)CCCC)[C@@H]([C@@H](OC(C)=O)[C@H]12)C3(C)C | > 183 | 88 | 94 | 56.7 | 111 | 16.6 | – | – | – | – | – | – |
| C=C1[C@@H](OC(C)=O)CC[C@@]2(C)C[C@H](OC(=O)/C=C/c3ccccc3)C3=C(C)C[C@H](OC(=O)/C=C/c4ccccc4)[C@@H]([C@@H](OC(C)=O)[C@H]12)C3(C)C | > 147 | 80 | 83 | > 147 | 80 | > 147 | 27 | 83 | 49 | 92 | 122 | 91 |
| C=C1[C@@H](OC(C)=O)CC[C@@]2(C)C[C@H](OC(C)=O)C3=C(C)C[C@H](OC(=O)CCC)[C@@H]([C@@H](OC(C)=O)[C@H]12)C3(C)C | 73.4 | 98 | 97 | 17.2 | 114 | 18.5 | – | – | – | – | – | – |
| C=C1[C@@H](OC(C)=O)CC[C@@]2(C)C[C@H](OC(=O)/C=C/c3ccccc3)C3=C(C)C[C@H](OC(C)=O)[C@@H]([C@@H](OC(C)=O)[C@H]12)C3(C)C | > 169 | 123 | 92 | > 169 | 126 | 106 | 81 | 130 | 118 | 209 | 451 | 132 |
| C=C1[C@@H](OC(C)=O)CC[C@@]2(C)C[C@H](OC(C)=O)C3=C(C)C[C@H](OC(C)=O)[C@@H]([C@@H](OC(=O)c4ccccc4)[C@H]12)C3(C)C | 125 | 96 | 98 | 175 | 125 | 51.9 | – | – | – | – | – | – |
| C=C1[C@@H](OC(C)=O)CC[C@@]2(C)C[C@H](OC(C)=O)C3=C(C)C[C@H](OC(=O)C(C)C)[C@@H]([C@@H](OC(C)=O)[C@H]12)C3(C)C | > 188 | 139 | 133 | 90.9 | 148 | 28 | – | – | – | – | – | – |
| C=C1[C@@H](OC(C)=O)CC[C@@]2(C)C[C@H](OC(C)=O)C3=C(C)C[C@H](OC(=O)/C=C/c4ccccc4)[C@@H]([C@@H](OC(C)=O)[C@H]12)C3(C)C | 154 | 126 | 123 | > 169 | 125 | > 169 | 62 | 87 | 75 | 140 | 280 | 95 |
| C=C1[C@@H](OC(C)=O)CC[C@@]2(C)[C@@H](OC(=O)/C=C/c3ccccc3)[C@H](OC(C)=O)C3=C(C)C[C@H](OC(C)=O)[C@@H]([C@@H](OC(C)=O)[C@H]12)C3(C)C | 151 | 103 | 102 | > 154 | 125 | > 154 | – | – | – | – | – | – |
| C=C1[C@@H](OC(C)=O)CC[C@@]2(C)C[C@H](OC(C)=O)C3=C(C)C[C@H](OC(=O)CC)[C@@H]([C@@H](OC(C)=O)[C@H]12)C3(C)C | > 193 | 98 | 104 | 93.7 | 119 | 86.4 | – | – | – | – | – | – |
